As usually defined, the Emax is the size of the effect at its maximum, as opposed to the concentration needed.

Series [1] relates to α2-ARs. The following applies: J. Med. Chem. 2007 and 2008 studies; cited from earlier work.
Series [2] has as its target T1, α2-ARs (Homo sapiens, UniProt P08913). Briefly: [35S]GTPγS binding assay (agonist stimulation) in human brain cortical membranes. As to conditions: for stimulation of [35S]GTPγS binding (agonist dose-response plot): compound alone. In kind it is biochemical. The text has this:
The α2-ARs are G-protein coupled receptors (GPCRs), and as such, when the endogenous ligand binds to the receptor, a change in the conformation of the G-proteins occurs leading to the exchange of GDP by GTP on the α-subunit, promoting their dissociation into α-GTP and βγ subunits, and resulting in transmembrane signalling. A direct evaluation of this G-protein activity can be made by determining the guanine nucleotide exchange using radiolabelled GTP analogues. The [^35S]GTPγS binding assay constitutes a functional measure of the interaction of the receptor and the G-protein and is a useful tool to distinguish between agonists (increasing the nucleotide binding), inverse agonists (decreasing the nucleotide binding), and neutral antagonists (not affecting the nucleotide binding) of GPCRs.
(§1) Preparation of membranes. Neural membranes (P2 fractions) were prepared from the PFC of human brains obtained at autopsy in the Instituto Vasco de Medicine Legal, Bilbao, Spain. Postmortem human brain samples of each subject (˜1 g) were homogenized using a Teflon-glass grinder (10 up-and-down strokes at 1500 rpm) in 30 volumes of homogenization buffer (1 mM MgCl2, and 5 mM Tris-HCl, pH 7.4) supplemented with 0.25 M sucrose. The crude homogenate was centrifuged for 5 min at 1000×g (4° C.) and the supernatant was centrifuged again for 10 min at 40000×g (4° C.). The resultant pellet was washed twice in 20 volumes of homogenization buffer and recentrifuged in similar conditions. Aliquots of 1 mg protein were stored at −70° C. until assay.
[^35S]GTPγS binding assays. The incubation buffer for measuring [^35S]GTPγS binding to brain membranes contained, in a total volume of 500 μL, 1 mM EGTA, 3 mM MgCl2, 100 mM NaCl, […], 50 mM Tris-HCl at pH 7.4 and 0.5 nM [^35S]GTPγS. Proteins aliquots were thawed and re-suspended in the same buffer. The incubation was started by addition of the membrane suspension (40 μg of membrane proteins) to the previous mixture and was performed at 30° C. for 120 min with shaking. In order to evaluate the influence of the compounds on [^35S]GTPγS binding, 8 concentrations (10^−10 to 10^−3M) of the different compounds were added to the assay. Incubations were terminated by adding 3 mL of ice-cold re-suspension buffer followed by rapid filtration through Whatman GF/C filters pre-soaked in the same buffer. The filters were rinsed twice with 3 mL of ice-cold re-suspension buffer, transferred to vials containing 5 mL. of OptiPhase HiSafe II cocktail (Wallac, UK) and the radioactivity trapped was determined by liquid scintillation spectrometry (Packard 2200CA). […] Non-specific binding of the radioligand was defined as the remaining [^35S]GTPγS binding in the presence of 10 μM unlabelled GTPγS.
On the technique in general: GTPγS is a poorly hydrolysed GTP analogue; its binding reports G protein activation.

Series [3] deals with extracellular NA levels in the PFC. Nature of the series: In-vivo microdialysis, extracellular NA in the PFC of freely moving rats. Also noted: species or system rat. The following applies: for Emax, extracellular NA levels: local administration by reverse dialysis 1-100 μM in PFC. The text has this:
The antagonistic properties of derivative 8b in-vitro, were substantiated by testing its effect on noradrenergic transmission in vivo using microdialysis experiments. This technique is a widely accepted method for sampling the extracellular fluid of the brain, allowing the study of different neurotransmitters in the extracellular area where the probe is implanted. This technique has been used to investigate the effect of different compounds on NA concentrations in the PFC, an area widely implicated in depression. The increase of NA concentration in the PFC of freely moving rats after drug administration is accepted as a good predictor for antidepressant activity. In this context, many antidepressants, including the α2-AR antagonist Mirtazapine, are able to increase dialysate levels of NA in the PFC.
Compounds 8b and RX821002 were dissolved in aCSF and perfussed via reverse dialysis at the time indicated by the arrows (every 70 minutes). Data correspond to the mean±standard error mean values from 3 to 5 animals for each group, and are expressed as percentages of the corresponding basal values.
Control rats were administered with the vehicle (saline). Intraperitoneal administration of compound 8b (10 mg/kg) increased NA extracellular concentration by 161±30% in the PFC. Data are given as mean±standard error mean values from 4-5 separate animals for each group and are expressed as percentages of the corresponding basal values. The arrow represents the time of administration of the compound or vehicle.
Microdialysis experiments Male Sprague-Dawley rats (250-300 g) were implanted with a probe in a stereotaxic apparatus under chloral hydrate anaesthesia (400 mg/kg i.p.). The probe was located in the prefrontal cortex (PFC) according to the co-ordinates of the atlas of Paxinos and Watson (AP (anterior to bregma) +2.8 mm, L (lateral from the mid-sagittal suture) +1 mm, DV (ventral from the dura surface) −5 mm). Experiments were performed 20-24 h after the probe implantation and aCSF (148 mM NaCl, 2.7 mM KCl, 1.2 mM CaCl2 and 0.85 mM MgCl2; pH 7.4) was pumped at a flow rate of 1 μl/min (CMA/Microdialysis infusion pump). […] Samples were collected every 35 min and NA concentrations analyzed by HPLC apparatus with amperometric detection (Hewlett-Packard model 1049A) at an oxidizing potential of +650 mV. […] Samples (injection volume 30 μl) were injected and NA analyzed in a run time of 10 min. […] All measures of extracellular NA concentrations are expressed as percentage of the baseline value±s.e.mean. One-way analysis of variance (ANOVA) for control group or two-way ANOVA between control and each treated group was assessed for statistical analysis. […]

Series [4] concerns the target T1, α2-ARs. Nature of the series: UK14304 stimulation of [35S]GTPγS binding in absence or presence of compounds (antagonism test). The following applies: human brain PFC, in vitro, 10^−5 M. In kind it is biochemical. On the procedure: as §1
[^35S]GTPγS binding assays. The incubation buffer for measuring [^35S]GTPγS binding to brain membranes contained, in a total volume of 500 μL, 1 mM EGTA, 3 mM MgCl2, 100 mM NaCl, […], 50 mM Tris-HCl at pH 7.4 and 0.5 nM [^35S]GTPγS. Proteins aliquots were thawed and re-suspended in the same buffer. […] The filters were rinsed twice with 3 mL of ice-cold re-suspension buffer, transferred to vials containing 5 mL. of OptiPhase HiSafe II cocktail (Wallac, UK) and the radioactivity trapped was determined by liquid scintillation spectrometry (Packard 2200CA). […]

The next series is described as follows: Tail suspension test. In kind it is in vivo, rat. From the text: FIG. 4 illustrates the rat tail suspension test for a number of compounds. The tail suspension test has become one of the most widely used models for assessing antidepressant-like activity in mice. The test is based on the fact that animals subjected to the short-term, inescapable stress of being suspended by their tail, will develop an immobile posture. Antidepressant medications reverse the immobility and promote the occurrence of escape-related behaviour.

Read-outs that look alike come from different tables or passages of the source.

T1 sequence (P08913 whole entry): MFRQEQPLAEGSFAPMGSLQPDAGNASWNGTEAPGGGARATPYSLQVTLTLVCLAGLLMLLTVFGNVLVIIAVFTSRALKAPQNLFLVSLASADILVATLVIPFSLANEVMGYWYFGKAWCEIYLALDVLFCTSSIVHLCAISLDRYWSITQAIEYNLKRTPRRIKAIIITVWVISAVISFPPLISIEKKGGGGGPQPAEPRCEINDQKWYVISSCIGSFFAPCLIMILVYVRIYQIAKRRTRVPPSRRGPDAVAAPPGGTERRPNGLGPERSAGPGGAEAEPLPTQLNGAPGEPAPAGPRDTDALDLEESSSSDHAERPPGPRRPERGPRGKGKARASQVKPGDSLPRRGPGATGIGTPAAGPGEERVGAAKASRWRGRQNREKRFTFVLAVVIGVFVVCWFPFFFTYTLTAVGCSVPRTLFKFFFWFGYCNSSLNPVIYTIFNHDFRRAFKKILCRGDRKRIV

On to `c1cc2c(cc1NC1=NCCN1)OCO2` [5′], for which the “behaviour at α2-ARs” value in the series with α2-ARs [1] is “antagonist behaviour”.

Regarding `CCNc1ccc(NC2=NCCN2)cc1` [Compound 5b, N-ethyl-N′-imidazolidin-2-ylidene-benzene-1,4-diamine], at α2-ARs [2], the maximal response (Emax) amounted to 95% and the “stimulation of [35S]GTPγS binding (agonist dose-response plot)” value (from here on “stimulation of [35S]GTPγS binding”) was “stimulated binding of [^35S]GTPγS”.

Regarding `CNc1ccc(NC2=NCCN2)cc1` [Compound 4b, N-imidazolidin-2-ylidene-N′-methyl-benzene-1,4-diamine], at α2-ARs [2], the Emax amounted to 98% and the “stimulation of [35S]GTPγS binding” value was “stimulated binding of [^35S]GTPγS”.

Consider `CNc1ccc(NC(=N)N)cc1` [Compound 7b, N-(4-methylamino-phenyl)-guanidine], for which, on α2-ARs [2], the “stimulation of [35S]GTPγS binding” value is “stimulated binding of [^35S]GTPγS”. In addition, the Emax on α2-ARs [2] (read-out: Emax (%)) was 87%.

For `CCN(C)c1ccc(NC2=NCCN2)cc1` [Compound 6b, N-Ethyl-N′-imidazolidin-2-ylidene-N-methyl-benzene-1,4-diamine], on α2-ARs [2], the Emax amounted to 103% and the “stimulation of [35S]GTPγS binding” value was “stimulated binding of [^35S]GTPγS”.

As to `N=C(N)Nc1ccc2c(c1)CCCC2` [6′], in the series on α2-ARs [1], the “behaviour at α2-ARs” value is reported as “antagonist behaviour”.

Turning to `COC1(C2=NCCN2)COc2ccccc2O1` (stereo not shown) [RX821002, 2-methoxy-idazoxan, reference compound], the “Emax, extracellular NA levels” value in series [3] (percentages of basal values) worked out at 290±35%.

As for `CCN(CC)c1ccc(NC(=N)N)cc1` [Compound 17, reference compound], the “stimulation of [35S]GTPγS binding” value at α2-ARs [2] was “stimulated binding of [^35S]GTPγS”. Further, the Emax at α2-ARs [2] (read-out: Emax (%)) is 89%.

In the case of `CCN(C)c1ccc(NC(=N)N)cc1` [Compound 9b, N-[4-(ethyl-methyl-amino)-phenyl]-guanidine], the “stimulation of [35S]GTPγS binding” value on α2-ARs [2] was “stimulated binding of [^35S]GTPγS”. Moreover, at α2-ARs [2] (read-out: Emax (%)), the Emax was found to be 92%.

For the compound `CCNc1ccc(NC(=N)N)cc1` [Compound 8b, N-(4-ethylamino-phenyl)-guanidine], the “stimulation of [35S]GTPγS binding” value at α2-ARs [2] is “did not stimulate binding of [^35S]GTPγS”. Moreover, on α2-ARs [4], the “nature at α2-ARs from shift of UK14304 EC50” value was “behaves as an antagonist”. For the same compound, the “ability to cross the blood brain barrier (BBB)” value in series [3] (inferred from NA increase after intraperitoneal administration) is “ability of the compound to cross the blood brain barrier”. Also, the “increase of NA extracellular concentration” value in series [3] (intraperitoneal 10 mg/kg, PFC, percentages of basal values) amounted to 161±30%. Further, the “Emax, extracellular NA levels” value in series [3] (percentages of basal values) is recorded as 304±54%. Besides, the performance against fluoxetine result in the series “Tail suspension test” (8b 10 mg/kg vs fluoxetine 40 mg/kg) was “vastly outperforms”. Also, the “time in immobile posture” value in the series “Tail suspension test” (FIG. 4, against all other compounds tested) is reported as “shortest length of time”.

Source of the values: patent US20100160332A1, “a2-Adrenoceptor Ligands” (The Provost, Fellows and Scholars of the College of the …, priority 2008, published 2010).
